From PubChem BioAssay AID2060509 (Molecular Pharmacology Branch, DTP, NCI, 2025)
Values joined by “and” are separate entries in the source; they are usually repeats but may differ in a detail not shown here. Equal values may be shown once.

Tested on: 485176-168-R4-J1-PDC spheroids with HUVEC/MSC, viability
Experiment: Anticancer human tumor 485176-168-R4-J1-PDC patient-derived pancreatic adenocarcinoma cell line growth inhibition [GQUAD]
Conditions: for viability, T/C: stronger effect = lower value
Source text: DNA G-quadruplex Stabilizer Agents in Combinations in Complex Spheroids
A high-throughput screen of multi-cell type tumor spheroids was designed to identify active combinations of DNA G-quadruplex stabilizer agents and targeted small molecules. Complex spheroids include a stromal component modeled by human endothelial cells (HUVEC) and fibroblasts modeled by human mesenchymal stem cells (MSCs). The concentration ranges selected for each drug and investigational agent were based upon clinically achievable concentrations if the clinical Cmax of the agent was known.
Compounds. The drugs and investigational agents: pidnarulex (CX-5461; NSC782164), APTO-253 (NSC789042), BRACO-19 (NSC847499), peposertib (NSC802822), ceralasertib (NSC780249), elimusertib (NSC800525), camonsertib (NSC841442), AZD-1390 (NSC803789), olaparib (NSC753686), talazoparib (NSC767125), ART-558 (NSC835418), sotorasib (NSC818433), MRTX-1133 (NSC836407), SN-38 (NSC673596), topotecan (NSC609699), etoposide (NSC141540), doxorubicin (NSC123127), gemcitabine (NSC613327), 5-fluorouracil (NSC19893), paclitaxel (NSC125973), vemurafenib (NSC761431), panobinostat (NSC761190), R-306465 (JNJ-16241199; NSC773264), adavosertib (NSC754352), TP-3654 (NSC805149), carboplatin (NSC241240), KSQ-4279 (NSC840948), and staurosporine (NSC755774) were obtained from the National Cancer Institute (NCI) Developmental Therapeutics Program Chemical Repository (34). The FDA-approved anticancer drug set is available from the NCI Developmental Therapeutics Program. […] The stock solutions were prepared in dimethyl sulfoxide (DMSO, Sigma-Aldrich, St. Louis, MO, cat. D2650) at 800-fold the tested concentration and stored at -70 degrees C prior to their use. All drugs and investigational agents were tested over a range starting from a high concentration at or near the clinical Cmax and decreasing in half-log increments. If the clinical Cmax for an agent had not been determined, the highest concentration tested was 10 microM.
2.3 Cell Culture. All cells were maintained in an incubator at 37 degrees C and 5% CO2 with 95% humidity. The PDC lines were cultured according to standard operating procedures established by the NCI PDMR. All PDCs were thawed and cultured in Matrigel-coated flasks prepared with a working solution of 1X Ham's F-12 nutrient mix, without supplementation (Invitrogen, cat. 11765054), 100 U/mL penicillin-streptomycin (Invitrogen, cat. 15140122), and 2.5% Matrigel (Corning Inc., cat. 354248) for the first three passages. The 857933-349-R-J2-PDC line was cultured in 6C/Colon 1B media, which includes advanced DMEM/F-12 (Thermo Fisher Scientific, cat. 12634028), 10 mM HEPES (Thermo Fisher Scientific, cat. 15630080), 1X GlutaMAX supplement (Thermo Fisher Scientific, cat. 35050061), 0.1 mg/mL primocin (InvivoGen, cat. ant-pm-2), 10% defined fetal bovine serum, heat inactivated (HyClone Laboratories Inc., cat. SH30070.03HI), 50% L-WRN conditioned media (ATCC, cat. CRL-3276), 1.25 mM N-Acetyl-L-cysteine (Sigma-Aldrich, cat. A9165), 10 mM nicotinamide (Sigma-Aldrich, cat. N0636), 1X B-27 supplement (Thermo Fisher Scientific, cat. 17504044), 1X N-2 supplement (Thermo Fisher Scientific, cat. 17502048), 10 microM Y-27632 dihydrochloride (Tocris Bioscience, cat. 1254), and 50 ng/mL human EGF recombinant protein (Thermo Fisher Scientific, cat. PHG0311). The 485176-168-R4-J1-PDC line was cultured in Panc media, which includes all 6C/Colon 1B media components plus 100 ng/mL human FGF-10 (Thermo Fisher Scientific, cat. 100-26), 500 nM SB-431542 (Selleckchem, cat. S1067), and gastrin (Tocris, cat. 3006).
[…]
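Also: spheroids exposed to compounds for seven days before readout.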
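For viability, T/C in this document: percent viability relative to DMSO vehicle control wells as 100%.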

## Nc1ccn(C2OC(CO)C(O)C2(F)F)c(=O)n1 (stereo unspecified) + CN(C)c1ccc(Nc2c3ccc(NC(=O)CCN4CCCC4)cc3nc3cc(NC(=O)CCN4CCCC4)ccc23)cc1
Curve of first compound, second compound 0.0316 µM
  IC50: 49.1 nM
Curve of first compound, second compound 0.1 µM
  IC50: 45.9 nM
Curve of first compound, second compound 0.316 µM
  IC50: 43.6 nM
Curve of first compound, second compound 1 µM
  IC50: 61.2 nM
Curve of first compound, second compound 3.16 µM
  IC50: 55.9 nM
Curve of first compound, second compound 10 µM
  IC50: 41.3 nM
Second compound 0.0316 µM, first compound 0.0316 µM
  viability, T/C: 70.3%
Second compound 0.0316 µM, first compound 0.1 µM
  viability, T/C: 17.4%
Second compound 0.0316 µM, first compound 0.316 µM
  viability, T/C: 10.6%
Second compound 0.0316 µM, first compound 1 µM
  viability, T/C: 9.81%
Second compound 0.0316 µM, first compound 3.16 µM
  viability, T/C: 10.5%
Second compound 0.0316 µM, first compound 10 µM
  viability, T/C: 12.1%
Second compound 0.1 µM, first compound 0.0316 µM
  viability, T/C: 63.7%
Second compound 0.1 µM, first compound 0.1 µM
  viability, T/C: 22%
Second compound 0.1 µM, first compound 0.316 µM
  viability, T/C: 10.5%
Second compound 0.1 µM, first compound 1 µM
  viability, T/C: 10.5%
Second compound 0.1 µM, first compound 3.16 µM
  viability, T/C: 10.3%
Second compound 0.1 µM, first compound 10 µM
  viability, T/C: 10.9%
Second compound 0.316 µM, first compound 0.0316 µM
  viability, T/C: 62.1%
Second compound 0.316 µM, first compound 0.1 µM
  viability, T/C: 19.4%
Second compound 0.316 µM, first compound 0.316 µM
  viability, T/C: 10.4%
Second compound 0.316 µM, first compound 1 µM
  viability, T/C: 10.9%
Second compound 0.316 µM, first compound 3.16 µM
  viability, T/C: 10.5%
Second compound 0.316 µM, first compound 10 µM
  viability, T/C: 13.7%
Second compound 1 µM, first compound 0.0316 µM
  viability, T/C: 90.1%
Second compound 1 µM, first compound 0.1 µM
  viability, T/C: 20.1%
Second compound 1 µM, first compound 0.316 µM
  viability, T/C: 10.6%
Second compound 1 µM, first compound 1 µM
  viability, T/C: 12.5%
Second compound 1 µM, first compound 3.16 µM
  viability, T/C: 11.6%
Second compound 1 µM, first compound 10 µM
  viability, T/C: 9.65%
Second compound 3.16 µM, first compound 0.0316 µM
  viability, T/C: 81.3%
Second compound 3.16 µM, first compound 0.1 µM
  viability, T/C: 18.1%
Second compound 3.16 µM, first compound 0.316 µM
  viability, T/C: 10.6%
Second compound 3.16 µM, first compound 1 µM
  viability, T/C: 11.5%
Second compound 3.16 µM, first compound 3.16 µM
  viability, T/C: 10%
Second compound 3.16 µM, first compound 10 µM
  viability, T/C: 11.9%
Second compound 10 µM, first compound 0.0316 µM
  viability, T/C: 58%
Second compound 10 µM, first compound 0.1 µM
  viability, T/C: 23.7%
Second compound 10 µM, first compound 0.316 µM
  viability, T/C: 10.4%
Second compound 10 µM, first compound 1 µM
  viability, T/C: 10.9%
Second compound 10 µM, first compound 3.16 µM
  viability, T/C: 11.1%
Second compound 10 µM, first compound 10 µM
  viability, T/C: 11.2%

## O=C(NO)c1cnc(N2CCN(S(=O)(=O)c3ccc4ccccc4c3)CC2)nc1
Compound 0.0316 µM
  viability, T/C: 83.4% and 107% and 97.9%
Compound 0.1 µM
  viability, T/C: 99.5% and 73.2% and 76.1%
Compound 0.316 µM
  viability, T/C: 67.6% and 78.2% and 61.2%
Compound 1 µM
  viability, T/C: 7.2% and 12.1% and 11%
Compound 3.16 µM
  viability, T/C: 0.3% and 0.31% and 0.2%
Compound 10 µM
  viability, T/C: 0.3% and 0.31% and 0.29%
Curve of compound
  IC50: 443 nM and 512 nM and 378 nM

## CC1COCCN1c1cc(C2(S(C)(=N)=O)CC2)nc(-c2ccnc3[nH]ccc23)n1 (stereo unspecified)
Compound 0.0316 µM
  viability, T/C: 91.4% and 102% and 101%
Compound 0.1 µM
  viability, T/C: 98.7% and 102% and 97.1%
Compound 0.316 µM
  viability, T/C: 93.1% and 96.5% and 101%
Compound 1 µM
  viability, T/C: 56% and 70.9% and 59.4%
Compound 3.16 µM
  viability, T/C: 36.2% and 34.4% and 72.4%
Compound 10 µM
  viability, T/C: 14.5% and 16.4% and 12.8%
Curve of compound
  IC50: 1550 nM and 1930 nM and 3980 nM
